From ChEMBL document CHEMBL3272261, “Aminobenzioc acid diuretics. 8.(2) 3, 4-Disubstituted 5-methylsulfonylbenzioc acids and related compounds” (1976)
Calls of active or inactive are those of the source. The calls are words filed in the database; no cut-off is given here.

Tests used:
Canis familiaris [1] = experiment: Diuretic activity in dog assessed as urine volume measured in water at 0.25 mg/kg, po after 3 hrs; assay type: functional, Canis lupus familiaris
Canis familiaris [2] = experiment: Saluretic activity in dog assessed as urinary excretion of sodium level at 0.25 mg/kg, po after 3 hrs; assay type: functional, Canis lupus familiaris, Urine
Canis familiaris [3] = experiment: Saluretic activity in dog assessed as urinary excretion of chloride level at 0.25 mg/kg, po after 3 hrs; assay type: functional, Canis lupus familiaris, Urine
Canis familiaris [4] = experiment: Saluretic activity in dog assessed as urinary excretion of potassium level at 0.25 mg/kg, po after 3 hrs; assay type: functional, Canis lupus familiaris, Urine
Canis familiaris [5] = experiment: Diuretic activity in dog assessed as urine volume measured in water at 10 mg/kg, iv after 3 hrs; assay type: functional, organism-based; design: dose 10 mg/kg; conditions: Canis lupus familiaris
Canis familiaris [6] = experiment: Saluretic activity in dog assessed as urinary excretion of potassium level at 1 mg/kg, iv after 3 hrs; assay type: functional, Canis lupus familiaris, Urine
Canis familiaris [7] = experiment: Saluretic activity in dog assessed as urinary excretion of sodium level at 0.1 mg/kg, iv after 3 hrs; assay type: functional, Canis lupus familiaris, Urine
Canis familiaris [8] = experiment: Saluretic activity in dog assessed as urinary excretion of chloride level at 0.1 mg/kg, iv after 3 hrs; assay type: functional, Canis lupus familiaris, Urine
Canis familiaris [9] = experiment: Saluretic activity in dog assessed as urinary excretion of chloride level at 1 mg/kg, iv after 3 hrs; assay type: functional, Canis lupus familiaris, Urine
Canis familiaris [10] = experiment: Saluretic activity in dog assessed as urinary excretion of potassium level at 0.1 mg/kg, iv after 3 hrs; assay type: functional, Canis lupus familiaris, Urine
Canis familiaris [11] = experiment: Diuretic activity in dog assessed as urine volume measured in water at 1 mg/kg, iv after 3 hrs; assay type: functional, Canis lupus familiaris
Canis familiaris [12] = experiment: Diuretic activity in dog assessed as urine volume measured in water at 0.1 mg/kg, iv after 3 hrs; assay type: functional, Canis lupus familiaris
Canis familiaris [13] = experiment: Saluretic activity in dog assessed as urinary excretion of sodium level at 1 mg/kg, iv after 3 hrs; assay type: functional, Canis lupus familiaris, Urine
Canis familiaris [14] = experiment: Diuretic activity in dog assessed as urine volume measured in water at 0.1 mg/kg, po after 3 hrs; assay type: functional, Canis lupus familiaris
Canis familiaris [15] = experiment: Saluretic activity in dog assessed as urinary excretion of potassium level at 0.1 mg/kg, po after 3 hrs; assay type: functional, Canis lupus familiaris, Urine
Canis familiaris [16] = experiment: Saluretic activity in dog assessed as urinary excretion of chloride level at 0.1 mg/kg, po after 3 hrs; assay type: functional, Canis lupus familiaris, Urine
Canis familiaris [17] = experiment: Saluretic activity in dog assessed as urinary excretion of chloride level at 1 mg/kg, po after 3 hrs; assay type: functional, Canis lupus familiaris, Urine
Canis familiaris [18] = experiment: Saluretic activity in dog assessed as urinary excretion of potassium level at 1 mg/kg, po after 3 hrs; assay type: functional, Canis lupus familiaris, Urine
Canis familiaris [19] = experiment: Diuretic activity in dog assessed as urine volume measured in water at 1 mg/kg, po after 3 hrs; assay type: functional, Canis lupus familiaris
Canis familiaris [20] = experiment: Saluretic activity in dog assessed as urinary excretion of sodium level at 0.1 mg/kg, po after 3 hrs; assay type: functional, Canis lupus familiaris, Urine
Canis familiaris [21] = experiment: Saluretic activity in dog assessed as urinary excretion of sodium level at 1 mg/kg, po after 3 hrs; assay type: functional, Canis lupus familiaris, Urine
Canis familiaris [22] = experiment: Saluretic activity in dog assessed as urinary excretion of sodium level at 0.01 mg/kg, iv after 3 hrs; assay type: functional, Canis lupus familiaris, Urine
Canis familiaris [23] = experiment: Saluretic activity in dog assessed as urinary excretion of potassium level at 0.01 mg/kg, iv after 3 hrs; assay type: functional, Canis lupus familiaris, Urine
Canis familiaris [24] = experiment: Diuretic activity in dog assessed as urine volume measured in water at 0.01 mg/kg, iv after 3 hrs; assay type: functional, Canis lupus familiaris
Canis familiaris [25] = experiment: Saluretic activity in dog assessed as urinary excretion of potassium level at 0.25 mg/kg, iv after 3 hrs; assay type: functional, Canis lupus familiaris, Urine
Canis familiaris [26] = experiment: Saluretic activity in dog assessed as urinary excretion of chloride level at 0.01 mg/kg, iv after 3 hrs; assay type: functional, Canis lupus familiaris, Urine
Canis familiaris [27] = experiment: Saluretic activity in dog assessed as urinary excretion of chloride level at 0.25 mg/kg, iv after 3 hrs; assay type: functional, Canis lupus familiaris, Urine
Canis familiaris [28] = experiment: Saluretic activity in dog assessed as urinary excretion of sodium level at 0.25 mg/kg, iv after 3 hrs; assay type: functional, Canis lupus familiaris, Urine
Canis familiaris [29] = experiment: Diuretic activity in dog assessed as urine volume measured in water at 0.25 mg/kg, iv after 3 hrs; assay type: functional, Canis lupus familiaris

Compound: CCCCNc1cc(C(=O)O)cc(S(C)(=O)=O)c1C(=O)c1ccccc1
- Activity (Canis familiaris [1]): 9 mL/kg
- Activity (Canis familiaris [2]): 0.9 milliequivalent/kg
- Activity (Canis familiaris [3]): 1.2 milliequivalent/kg
- Activity (Canis familiaris [4]): 0.19 milliequivalent/kg

Compound: CS(=O)(=O)c1cc(C(=O)O)c(NCc2ccccc2)cc1Sc1ccccc1
- Activity (Canis familiaris [5]): inactive

Compound: CCCCNc1cc(C(=O)O)cc(S(C)(=O)=O)c1Oc1ccccc1
- Activity (Canis familiaris [6]): 0.22 milliequivalent/kg
- Activity (Canis familiaris [7]): 0.6 milliequivalent/kg
- Activity (Canis familiaris [8]): 0.4 milliequivalent/kg
- Activity (Canis familiaris [9]): 2.7 milliequivalent/kg
- Activity (Canis familiaris [10]): 0.19 milliequivalent/kg
- Activity (Canis familiaris [11]): 15 mL/kg
- Activity (Canis familiaris [12]): 3 mL/kg
- Activity (Canis familiaris [13]): 2.1 milliequivalent/kg

Compound: C[S+]([O-])c1cc(C(=O)O)cc(NCc2ccccc2)c1Oc1ccccc1 (configuration not stated)
- Activity (Canis familiaris [6]): 0.17 milliequivalent/kg
- Activity (Canis familiaris [9]): 1.1 milliequivalent/kg
- Activity (Canis familiaris [11]): 7 mL/kg
- Activity (Canis familiaris [13]): 0.9 milliequivalent/kg

Compound: CS(=O)(=O)c1cc(C(=O)O)cc(NCc2ccccc2)c1C(=O)c1ccccc1
- Activity (Canis familiaris [14]): 12 mL/kg
- Activity (Canis familiaris [15]): 0.28 milliequivalent/kg
- Activity (Canis familiaris [16]): 1.7 milliequivalent/kg
- Activity (Canis familiaris [17]): 4.7 milliequivalent/kg
- Activity (Canis familiaris [18]): 0.64 milliequivalent/kg
- Activity (Canis familiaris [19]): 33 mL/kg
- Activity (Canis familiaris [20]): 1.2 milliequivalent/kg
- Activity (Canis familiaris [21]): 3.9 milliequivalent/kg

Compound: CCCCNc1cc(C(=O)O)cc2c1C(c1ccccc1)=CS2(=O)=O
- Activity (Canis familiaris [11]; Canis lupus familiaris): inactive

Compound: CS(=O)(=O)c1cc(C(=O)O)c(NCc2ccccc2)cc1Nc1ccccc1
- Activity (Canis familiaris [5]): inactive

Compound: CCCCNc1cc(C(=O)O)cc(S(N)(=O)=O)c1Oc1ccccc1 [BUMETANIDE]
- Activity (Canis familiaris [14]): 31 mL/kg
- Activity (Canis familiaris [15]): 0.49 milliequivalent/kg
- Activity (Canis familiaris [22]): 0.92 milliequivalent/kg
- Activity (Canis familiaris [16]): 4.5 milliequivalent/kg
- Activity (Canis familiaris [23]): 0.27 milliequivalent/kg
- Activity (Canis familiaris [7]): 2.4 milliequivalent/kg
- Activity (Canis familiaris [8]): 3.5 milliequivalent/kg
- Activity (Canis familiaris [24]): 10 mL/kg
- Activity (Canis familiaris [20]): 3.3 milliequivalent/kg
- Activity (Canis familiaris [25]): 0.84 milliequivalent/kg
- Activity (Canis familiaris [26]): 1.4 milliequivalent/kg
- Activity (Canis familiaris [27]): 5.7 milliequivalent/kg
- Activity (Canis familiaris [28]): 4 milliequivalent/kg
- Activity (Canis familiaris [29]): 39 mL/kg
- Activity (Canis familiaris [10]): 0.44 milliequivalent/kg
- Activity (Canis familiaris [12]): 26 mL/kg

Compound: CS(=O)(=O)c1cc(C(=O)O)cc(SCc2ccccc2)c1Sc1ccccc1
- Activity (Canis familiaris [19]; Canis lupus familiaris): inactive

Compound: CSc1cc(C(=O)O)cc(NCc2ccccc2)c1Oc1ccccc1
- Activity (Canis familiaris [6]): 0.21 milliequivalent/kg
- Activity (Canis familiaris [9]): 0.9 milliequivalent/kg
- Activity (Canis familiaris [11]): 7 mL/kg
- Activity (Canis familiaris [13]): 0.6 milliequivalent/kg

Compound: CCCCSc1cc(C(=O)O)cc(S(C)(=O)=O)c1Oc1ccccc1
- Activity (Canis familiaris [6]): 0.64 milliequivalent/kg
- Activity (Canis familiaris [9]): 3.2 milliequivalent/kg
- Activity (Canis familiaris [11]): 21 mL/kg
- Activity (Canis familiaris [12]; Canis lupus familiaris): inactive
- Activity (Canis familiaris [13]): 3 milliequivalent/kg

Compound: CCCCOc1cc(C(=O)O)cc(S(C)(=O)=O)c1C(=O)c1ccccc1
- Activity (Canis familiaris [14]): 4 mL/kg
- Activity (Canis familiaris [15]): 0.22 milliequivalent/kg
- Activity (Canis familiaris [16]): 0.8 milliequivalent/kg
- Activity (Canis familiaris [17]): 3.4 milliequivalent/kg
- Activity (Canis familiaris [18]): 0.54 milliequivalent/kg
- Activity (Canis familiaris [19]): 24 mL/kg
- Activity (Canis familiaris [20]): 0.5 milliequivalent/kg
- Activity (Canis familiaris [21]): 2.6 milliequivalent/kg

Compound: CS(=O)(=O)c1cc(C(=O)O)cc(NCc2ccccc2)c1Oc1ccccc1
- Activity (Canis familiaris [6]): 0.98 milliequivalent/kg
- Activity (Canis familiaris [7]): 1.1 milliequivalent/kg
- Activity (Canis familiaris [8]): 1.4 milliequivalent/kg
- Activity (Canis familiaris [9]): 5.1 milliequivalent/kg
- Activity (Canis familiaris [25]): 0.99 milliequivalent/kg
- Activity (Canis familiaris [27]): 3.5 milliequivalent/kg
- Activity (Canis familiaris [28]): 3 milliequivalent/kg
- Activity (Canis familiaris [29]): 21 mL/kg
- Activity (Canis familiaris [10]): 0.2 milliequivalent/kg
- Activity (Canis familiaris [11]): 31 mL/kg
- Activity (Canis familiaris [12]): 9 mL/kg
- Activity (Canis familiaris [13]): 4.8 milliequivalent/kg

Compound: CS(=O)(=O)c1cc(C(=O)O)cc(OCc2ccccc2)c1C(=O)c1ccccc1
- Activity (Canis familiaris [14]): 11 mL/kg
- Activity (Canis familiaris [15]): 0.25 milliequivalent/kg
- Activity (Canis familiaris [16]): 1.7 milliequivalent/kg
- Activity (Canis familiaris [20]): 1.2 milliequivalent/kg

Compound: O=C(O)c1cc(NCc2ccccc2)c2c(c1)S(=O)(=O)C=C2c1ccccc1
- Activity (Canis familiaris [11]; Canis lupus familiaris): inactive

Compound: CS(=O)(=O)c1cc(C(=O)O)c(NCc2ccccc2)cc1Oc1ccccc1
- Activity (Canis familiaris [5]): inactive

Compound: O=C(O)c1cc(NCc2ccccc2)c2c(c1)S(=O)(=O)CC2(O)c1ccccc1 (configuration not stated)
- Activity (Canis familiaris [11]; Canis lupus familiaris): inactive

Compound: CS(=O)(=O)c1cc(C(=O)O)cc(NCc2ccccc2)c1Nc1ccccc1
- Activity (Canis familiaris [29]; Canis lupus familiaris): inactive

Compound: CS(=O)(=O)c1cc(C(=O)O)cc(NCc2ccccc2)c1Sc1ccccc1
- Activity (Canis familiaris [6]): 0.28 milliequivalent/kg
- Activity (Canis familiaris [9]): 2.4 milliequivalent/kg
- Activity (Canis familiaris [25]): 0.18 milliequivalent/kg
- Activity (Canis familiaris [27]): 1 milliequivalent/kg
- Activity (Canis familiaris [28]): 0.9 milliequivalent/kg
- Activity (Canis familiaris [29]): 6 mL/kg
- Activity (Canis familiaris [11]): 17 mL/kg
- Activity (Canis familiaris [13]): 2 milliequivalent/kg

Compound: CCCCNc1cc(C(=O)O)cc2c1C(O)(c1ccccc1)CS2(=O)=O (configuration not stated)
- Activity (Canis familiaris [11]; Canis lupus familiaris): inactive

Compound: CS(=O)(=O)c1cc(C(=O)O)c(NCc2ccco2)cc1Oc1ccccc1
- Activity (Canis familiaris [6]): 0.39 milliequivalent/kg
- Activity (Canis familiaris [9]): 2 milliequivalent/kg
- Activity (Canis familiaris [11]): 14 mL/kg
- Activity (Canis familiaris [13]): 1.7 milliequivalent/kg

Compound: NS(=O)(=O)c1cc(C(=O)O)c(NCc2ccco2)cc1Oc1ccccc1
- Activity (Canis familiaris [22]): 0.6 milliequivalent/kg
- Activity (Canis familiaris [23]): 0.27 milliequivalent/kg
- Activity (Canis familiaris [7]): 2.9 milliequivalent/kg
- Activity (Canis familiaris [8]): 3.8 milliequivalent/kg
- Activity (Canis familiaris [24]): 8 mL/kg
- Activity (Canis familiaris [26]): 0.8 milliequivalent/kg
- Activity (Canis familiaris [10]): 0.45 milliequivalent/kg
- Activity (Canis familiaris [12]): 25 mL/kg
